Source: PubChem BioAssay (NCI)
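48-hour exposure; five concentrations; linearly interpolated endpoints. GI50 = concentration required for 50% inhibition of growth. TGI: concentration producing complete growth inhibition.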

Columns and labels:
Experiment in all cases: inhibition of tumour cell growth, NCI panel, 48 h
786-0 renal = system: 786-0 renal
A549 NSCLC = system: A549 NSCLC
ACHN renal = system: ACHN renal
BT-549 breast = system: BT-549 breast
CAKI-1 renal = system: CAKI-1 renal
CCRF-CEM leukemia = system: CCRF-CEM leukemia
DU-145 prostate = system: DU-145 prostate
EKVX NSCLC = system: EKVX NSCLC
HCC-2998 colon = system: HCC-2998 colon
HCT-116 colon = system: HCT-116 colon
HCT-15 colon = system: HCT-15 colon
HL-60(TB) leukemia = system: HL-60(TB) leukemia
HOP-62 NSCLC = system: HOP-62 NSCLC
HOP-92 NSCLC = system: HOP-92 NSCLC
HS 578T breast = system: HS 578T breast
HT29 colon = system: HT29 colon
IGROV1 ovarian = system: IGROV1 ovarian
K-562 leukemia = system: K-562 leukemia
KM12 colon = system: KM12 colon
LOX IMVI melanoma = system: LOX IMVI melanoma
M14 melanoma = system: M14 melanoma
MALME-3M melanoma = system: MALME-3M melanoma
MCF7 breast = system: MCF7 breast
MDA-MB-231 breast = system: MDA-MB-231 breast
MDA-MB-435 = system: MDA-MB-435
MOLT-4 leukemia = system: MOLT-4 leukemia
NCI-H23 lung = system: NCI-H23 lung
NCI-H460 lung = system: NCI-H460 lung
NCI-H522 lung = system: NCI-H522 lung
NCI/ADR-RES ovarian = system: NCI/ADR-RES ovarian
OVCAR-3 ovarian = system: OVCAR-3 ovarian
OVCAR-4 ovarian = system: OVCAR-4 ovarian
OVCAR-5 ovarian = system: OVCAR-5 ovarian
OVCAR-8 ovarian = system: OVCAR-8 ovarian
PC-3 prostate = system: PC-3 prostate
RPMI-8226 leukemia = system: RPMI-8226 leukemia
RXF 393 renal = system: RXF 393 renal
SF-268 CNS = system: SF-268 CNS
SF-295 CNS = system: SF-295 CNS
SF-539 CNS = system: SF-539 CNS
SK-MEL-2 melanoma = system: SK-MEL-2 melanoma
SK-MEL-28 melanoma = system: SK-MEL-28 melanoma
SK-MEL-5 melanoma = system: SK-MEL-5 melanoma
SN12C renal = system: SN12C renal
SNB-19 CNS = system: SNB-19 CNS
SNB-75 CNS = system: SNB-75 CNS
SR leukemia = system: SR leukemia
SW-620 colon = system: SW-620 colon
T-47D breast = system: T-47D breast
TK-10 renal = system: TK-10 renal
U251 CNS = system: U251 CNS
UACC-257 melanoma = system: UACC-257 melanoma
UACC-62 melanoma = system: UACC-62 melanoma
UO-31 renal = system: UO-31 renal

Q: `C=C1CC[C@@H]2C(C)(C)[C@H](O)CC[C@@]2(C)[C@@H]1COc1ccc2ccc(=O)oc2c1` was tested. Which GI50 (786-0 renal) did it give?
A: Its GI50 is 25 µM.

Q: And the TGI (786-0 renal)?
A: The TGI was 68 µM.

Q: And the GI50 (A549 NSCLC)?
A: The GI50 was 21.9 µM.

Q: What about the TGI (A549 NSCLC) of the same compound?
A: The TGI was 60 µM.

Q: And the GI50 (ACHN renal)?
A: The GI50 was 31.6 µM.

Q: What about the TGI (ACHN renal) of the same compound?
A: The TGI was over 100 µM.

Q: And the GI50 (BT-549 breast)?
A: Its GI50 is 20.6 µM.

Q: And the TGI (BT-549 breast)?
A: The TGI was 64.1 µM.

Q: And the GI50 (CAKI-1 renal)?
A: The GI50 was 23.2 µM.

Q: And the TGI (CAKI-1 renal)?
A: The TGI was 74.5 µM.

Q: And the GI50 (CCRF-CEM leukemia)?
A: The GI50 was 28.4 µM.

Q: And the TGI (CCRF-CEM leukemia)?
A: Its TGI is over 100 µM.

Q: And the GI50 (DU-145 prostate)?
A: The GI50 was 30.1 µM.

Q: What about the TGI (DU-145 prostate) of the same compound?
A: Its TGI is over 100 µM.

Q: What about the GI50 (EKVX NSCLC) of the same compound?
A: Its GI50 is 29 µM.

Q: What about the TGI (EKVX NSCLC) of the same compound?
A: The TGI was over 100 µM.

Q: And the GI50 (HCC-2998 colon)?
A: Its GI50 is 42.3 µM.

Q: What about the TGI (HCC-2998 colon) of the same compound?
A: The TGI was over 100 µM.

Q: And the GI50 (HCT-116 colon)?
A: The GI50 was 26 µM.

Q: And the TGI (HCT-116 colon)?
A: Its TGI is 81.4 µM.

Q: And the GI50 (HCT-15 colon)?
A: The GI50 was 27 µM.

Q: What about the TGI (HCT-15 colon) of the same compound?
A: Its TGI is over 100 µM.

Q: And the GI50 (HL-60(TB) leukemia)?
A: Its GI50 is 24.1 µM.

Q: And the TGI (HL-60(TB) leukemia)?
A: The TGI was 57.6 µM.

Q: And the GI50 (HOP-62 NSCLC)?
A: Its GI50 is 28.2 µM.

Q: What about the TGI (HOP-62 NSCLC) of the same compound?
A: Its TGI is over 100 µM.

Q: And the GI50 (HOP-92 NSCLC)?
A: Its GI50 is 12.5 µM.

Q: And the TGI (HOP-92 NSCLC)?
A: The TGI was 70.5 µM.

Q: And the GI50 (HS 578T breast)?
A: The GI50 was 25.1 µM.

Q: What about the TGI (HS 578T breast) of the same compound?
A: Its TGI is 86.8 µM.

Q: What about the GI50 (HT29 colon) of the same compound?
A: The GI50 was 32.3 µM.

Q: What about the TGI (HT29 colon) of the same compound?
A: The TGI was over 100 µM.

Q: And the GI50 (IGROV1 ovarian)?
A: Its GI50 is 27.7 µM.

Q: And the TGI (IGROV1 ovarian)?
A: Its TGI is over 100 µM.

Q: And the GI50 (K-562 leukemia)?
A: The GI50 was 26.9 µM.

Q: And the TGI (K-562 leukemia)?
A: Its TGI is over 100 µM.

Q: And the GI50 (KM12 colon)?
A: The GI50 was 21.1 µM.

Q: What about the TGI (KM12 colon) of the same compound?
A: Its TGI is 51 µM.

Q: And the GI50 (LOX IMVI melanoma)?
A: The GI50 was 23.3 µM.

Q: What about the TGI (LOX IMVI melanoma) of the same compound?
A: Its TGI is 56.5 µM.

Q: And the GI50 (M14 melanoma)?
A: Its GI50 is 22.5 µM.

Q: What about the TGI (M14 melanoma) of the same compound?
A: The TGI was 55.5 µM.

Q: And the GI50 (MALME-3M melanoma)?
A: The GI50 was 20.3 µM.

Q: And the TGI (MALME-3M melanoma)?
A: The TGI was 64.2 µM.

Q: What about the GI50 (MCF7 breast) of the same compound?
A: Its GI50 is 24.3 µM.

Q: And the TGI (MCF7 breast)?
A: Its TGI is 80.8 µM.

Q: And the GI50 (MDA-MB-231 breast)?
A: The GI50 was 30.4 µM.

Q: What about the TGI (MDA-MB-231 breast) of the same compound?
A: The TGI was over 100 µM.

Q: And the GI50 (MDA-MB-435)?
A: Its GI50 is 25.3 µM.

Q: And the TGI (MDA-MB-435)?
A: Its TGI is 72.3 µM.

Q: What about the GI50 (MOLT-4 leukemia) of the same compound?
A: The GI50 was 23.9 µM.

Q: And the TGI (MOLT-4 leukemia)?
A: The TGI was 62 µM.

Q: And the GI50 (NCI-H23 lung)?
A: The GI50 was 24.5 µM.

Q: What about the TGI (NCI-H23 lung) of the same compound?
A: The TGI was 70.1 µM.

Q: And the GI50 (NCI-H460 lung)?
A: Its GI50 is 26.5 µM.

Q: And the TGI (NCI-H460 lung)?
A: Its TGI is 71.1 µM.

Q: And the GI50 (NCI-H522 lung)?
A: Its GI50 is 21.2 µM.

Q: What about the TGI (NCI-H522 lung) of the same compound?
A: Its TGI is 77.4 µM.

Q: And the GI50 (NCI/ADR-RES ovarian)?
A: The GI50 was 22.9 µM.

Q: And the TGI (NCI/ADR-RES ovarian)?
A: The TGI was 62.7 µM.

Q: What about the GI50 (OVCAR-3 ovarian) of the same compound?
A: The GI50 was 22.3 µM.

Q: What about the TGI (OVCAR-3 ovarian) of the same compound?
A: Its TGI is 56 µM.

Q: And the GI50 (OVCAR-4 ovarian)?
A: The GI50 was 17.2 µM.

Q: And the TGI (OVCAR-4 ovarian)?
A: The TGI was 56.6 µM.

Q: And the GI50 (OVCAR-5 ovarian)?
A: The GI50 was 38.2 µM.

Q: And the TGI (OVCAR-5 ovarian)?
A: Its TGI is over 100 µM.

Q: And the GI50 (OVCAR-8 ovarian)?
A: Its GI50 is 24.2 µM.

Q: And the TGI (OVCAR-8 ovarian)?
A: The TGI was 71 µM.

Q: And the GI50 (PC-3 prostate)?
A: Its GI50 is 19.7 µM.

Q: And the TGI (PC-3 prostate)?
A: Its TGI is 66.3 µM.

Q: And the GI50 (RPMI-8226 leukemia)?
A: Its GI50 is 15.6 µM.

Q: What about the TGI (RPMI-8226 leukemia) of the same compound?
A: Its TGI is 51.9 µM.

Q: What about the GI50 (RXF 393 renal) of the same compound?
A: The GI50 was 20.4 µM.

Q: And the TGI (RXF 393 renal)?
A: The TGI was 79.5 µM.

Q: What about the GI50 (SF-268 CNS) of the same compound?
A: The GI50 was 28.4 µM.

Q: And the TGI (SF-268 CNS)?
A: Its TGI is 90.6 µM.

Q: What about the GI50 (SF-295 CNS) of the same compound?
A: Its GI50 is 21.3 µM.

Q: What about the TGI (SF-295 CNS) of the same compound?
A: The TGI was 62.4 µM.

Q: What about the GI50 (SF-539 CNS) of the same compound?
A: The GI50 was 29.9 µM.

Q: And the TGI (SF-539 CNS)?
A: The TGI was over 100 µM.

Q: What about the GI50 (SK-MEL-2 melanoma) of the same compound?
A: Its GI50 is 23.9 µM.

Q: What about the TGI (SK-MEL-2 melanoma) of the same compound?
A: The TGI was 65.3 µM.

Q: And the GI50 (SK-MEL-28 melanoma)?
A: Its GI50 is 28.7 µM.

Q: And the TGI (SK-MEL-28 melanoma)?
A: The TGI was 80.6 µM.

Q: And the GI50 (SK-MEL-5 melanoma)?
A: The GI50 was 17.9 µM.

Q: And the TGI (SK-MEL-5 melanoma)?
A: Its TGI is 37 µM.

Q: And the GI50 (SN12C renal)?
A: Its GI50 is 28.2 µM.

Q: What about the TGI (SN12C renal) of the same compound?
A: Its TGI is over 100 µM.

Q: And the GI50 (SNB-19 CNS)?
A: The GI50 was 33.7 µM.

Q: What about the TGI (SNB-19 CNS) of the same compound?
A: Its TGI is over 100 µM.

Q: What about the TGI (SNB-75 CNS) of the same compound?
A: The TGI was 46.3 µM.

Q: What about the GI50 (SR leukemia) of the same compound?
A: The GI50 was 40 µM.

Q: And the TGI (SR leukemia)?
A: The TGI was over 100 µM.

Q: And the GI50 (SW-620 colon)?
A: Its GI50 is 34.5 µM.

Q: What about the TGI (SW-620 colon) of the same compound?
A: The TGI was over 100 µM.

Q: And the GI50 (T-47D breast)?
A: Its GI50 is 14.6 µM.

Q: And the TGI (T-47D breast)?
A: The TGI was 64.1 µM.

Q: What about the GI50 (TK-10 renal) of the same compound?
A: Its GI50 is 35.6 µM.

Q: What about the TGI (TK-10 renal) of the same compound?
A: Its TGI is over 100 µM.

Q: What about the GI50 (U251 CNS) of the same compound?
A: The GI50 was 27.5 µM.

Q: And the TGI (U251 CNS)?
A: Its TGI is over 100 µM.

Q: And the GI50 (UACC-257 melanoma)?
A: The GI50 was 26.9 µM.

Q: What about the TGI (UACC-257 melanoma) of the same compound?
A: The TGI was 69.5 µM.

Q: And the TGI (UACC-62 melanoma)?
A: Its TGI is 48.4 µM.

Q: And the TGI (UO-31 renal)?
A: Its TGI is 38.4 µM.
